Test results published in US9629872B2, “Sodium thiosulphate for the treatment of ectopic calcifications” (Institut National de la Sante et de la Recherche Medicale …, priority 2012, dated 2017).

Key:
dystrophic calcification = conditions: cited from earlier work
[1] = injectable solution of 0.15 g/mL with sodium phosphate dodecahydrate 1.21%, packaged in an ampoule; cited from earlier work
[2] = system: ossifications (ankle region and popliteal fossa area); assay: Topical treatment of a child with progressive osseous heteroplasia (Example 3); assay type: in vivo, human; conditions: before the topical treatment; given with non steroidal anti-inflammatory medications
Procedure: A child, weighing 27 kg, suffering from progressive osseous heteroplasia presented with significant ossifications that were responsible for a limitation of function in the right foot: in the ankle region, with an estimated surface area of 10 cm×5 cm, and in the popliteal fossa area with 2 patches, having an estimated surface area of 6 cm×4 cm each.
These exploratory tests were carried out in addition to the usual checkup including the exploration of renal function and liver function, as well as calcium and phosphate checkup.

Compound	superficial calcifications (dystrophic calcification; after six months, 10% compresses twice a week, with topical corticosteroid, acetic acid compresses and oral antibiotics)	pains (dystrophic calcification; after six months, 10% compresses, combined treatment)	re-epithelialisation over the wound regions (dystrophic calcification; three months later (after the first six months))	stability [1] [years]	improvement under earlier treatment [2]
O=S([O-])([O-])=S.[Na+].[Na+] [sodium thiosulfate]	dissolved	progressively abated	almost complete re-epithelialisation	3	–
CC(O)(P(=O)(O)O)P(=O)(O)O [disodium etidronate]	–	–	–	–	No improvement
